Patent publication US4405743A, “Pyrazolylpyrimidine derivatives” (Hokko Chemical Industry Co., Ltd., priority 1981, dated 1983)
Read-outs that look alike come from different tables or passages of the source.

Columns and labels:
rice plant [1] = settings: in vivo
Pyricularia oryzae [2] = type: in vivo, Pyricularia oryzae on rice plant (variety: Asahi); settings: rice blast, curative treatment; sprayed liquid 200 ppm; 5 days after spraying
Sphaerotheca friliginea = assay: Effect of controlling cucumber powdery mildew, Experimental Example 4; type: in vivo; settings: sprayed liquid 200 ppm, 10 days after inoculation
Description: 10 ml of each of test liquids diluted to a predetermined concentration was sprayed over seedlings of a cucumber plant (variety: Sagami Hanpaku) grown up to the first leaf stage which has been soil cultured in an unglazed pot with a diameter of 9 cm in a green house. After allowing to stand overnight, the seedlings were sprayed for inoculation with a spore suspension of Sphaerotheca friliginea. Ten days after the inoculation, the rate of a lesion area (%) was checked and a control value was evaluated from the following equation. The degree of chemical injury against a cucumber plant was determined in the same manner as in Experimental Example.

rice plant [3] = settings: blast prevention test, 200 ppm
Cochliobolus miyabeanus = assay: Effect of controlling rice brown spot, Experimental Example 3; type: in vivo, Cochliobolus miyabeanus on rice plant (variety: Asahi); settings: sprayed liquid 500 ppm, 5 days after inoculation
Pyricularia oryzae [4] = type: in vivo, Pyricularia oryzae on rice plant (variety: Asahi); settings: rice blast, prevention; 200 ppm; 5 days after inoculation
rice plant [5] = settings: blast curative test, 200 ppm

Row | SMILES | Degree of chemical injury (rice plant [1]) | Control Value (Pyricularia oryzae [2]) | Control Value (Sphaerotheca friliginea) | Degree of chemical injury (rice plant [3]) | Control Value (Cochliobolus miyabeanus) | Degree of chemical injury (cucumber plant; in vivo) | Control Value (Pyricularia oryzae [4]) | Degree of chemical injury (rice plant [5]) | Degree of chemical injury (cucumber plant; 200 ppm)
1 | Cc1cc(SC#N)nc(-n2nc(C)cc2C)n1 [Comparative Chemical 3] | 5 | – | – | – | – | – | – | – | –
2 | CCOc1ccnc(-n2nc(C)cc2C)n1 [Compound 1] | 0 | 100% | 90% | 0 | 99% | 0 | 100% | 0 | –
3 | CCSc1ccnc(-n2nc(C)cc2C)n1 [Compound 2] | 0 | 100% | 88% | 0 | 94% | 0 | 100% | 0 | –
4 | Cc1cc(C)n(-c2nccc(Oc3ccccc3)n2)n1 [Compound 3] | 0 | 98% | 94% | 0 | 100% | 0 | 100% | 0 | –
5 | Cc1cc(Oc2ccc(Br)cc2)nc(-n2nc(C)cc2C)n1 [Compound 8] | 0 | – | 78% | 0 | 61% | 0 | 100% | – | –
6 | Cc1cc(Oc2ccc(I)cc2)nc(-n2nc(C)cc2C)n1 [Compound 10] | 0 | – | – | 0 | 60% | – | 100% | – | –
7 | Cc1ccc(Sc2cc(C)nc(-n3nc(C)cc3C)n2)cc1 [Compound 16] | 0 | 100% | – | 0 | 100% | – | 100% | 0 | –
8 | CSc1ccc(Oc2cc(C)nc(-n3nc(C)cc3C)n2)cc1 [Compound 18] | 0 | – | – | 0 | 90% | – | 100% | – | –
9 | Cc1cc(Oc2ccc(C#N)cc2)nc(-n2nc(C)cc2C)n1 [Compound 19] | – | – | – | 0 | – | – | 100% | – | –
10 | Cc1cc(Oc2ccc([N+](=O)[O-])cc2)nc(-n2nc(C)cc2C)n1 [Compound 20] | 0 | – | 78% | 0 | 91% | 0 | 82% | – | –
11 | Cc1cc(Oc2cccc(C(F)(F)F)c2)nc(-n2nc(C)cc2C)n1 [Compound 21] | 0 | – | 86% | 0 | 77% | 0 | 100% | – | –
12 | CCOC(=O)c1ccc(Oc2cc(C)nc(-n3nc(C)cc3C)n2)cc1 [Compound 22] | 0 | – | – | 0 | 100% | – | 100% | – | –
13 | Cc1cc(Oc2ccc(Cl)c(Cl)c2)nc(-n2nc(C)cc2C)n1 [Compound 24] | 0 | 84% | – | 0 | 89% | 0 | 92% | 0 | –
14 | Cc1cc(Oc2ccc(Cl)c(C)c2)nc(-n2nc(C)cc2C)n1 [Compound 26] | 0 | – | – | 0 | 100% | – | 100% | – | –
15 | Cc1cc(Oc2ccc([N+](=O)[O-])c(C)c2)nc(-n2nc(C)cc2C)n1 [Compound 31] | – | 84% | 77% | 0 | – | – | 100% | 0 | 0
